Measured values published in patent US20090099158A1, “TETRAHYDROISOQUINOLINE COMPOUNDS AS MODULATORS OF THE HISTAMINE H3 RECEPTOR” (priority 2007, published 2009).

What follows are compounds tested against T1, cloned human H3 receptors (Homo sapiens, UniProt Q9Y5N1) (assay: H3 Receptor Binding (Human)). Details: cloned human H3 receptors stably expressed in SK-N-MC cells; average of the results obtained.
T1 construct: expressed in transfected cells; host or cells: SK-N-MC cells
Protocol: Binding of compounds to the cloned human H3 receptors, stably expressed in SK-N-MC cells, was performed as described by Barbier, A. J. et al. (Br. J. Pharmacol. 2004, 143(5), 649-661). Data for compounds tested in this assay are presented in Table 1 as an average of the results obtained.

T1 sequence (Q9Y5N1 whole entry): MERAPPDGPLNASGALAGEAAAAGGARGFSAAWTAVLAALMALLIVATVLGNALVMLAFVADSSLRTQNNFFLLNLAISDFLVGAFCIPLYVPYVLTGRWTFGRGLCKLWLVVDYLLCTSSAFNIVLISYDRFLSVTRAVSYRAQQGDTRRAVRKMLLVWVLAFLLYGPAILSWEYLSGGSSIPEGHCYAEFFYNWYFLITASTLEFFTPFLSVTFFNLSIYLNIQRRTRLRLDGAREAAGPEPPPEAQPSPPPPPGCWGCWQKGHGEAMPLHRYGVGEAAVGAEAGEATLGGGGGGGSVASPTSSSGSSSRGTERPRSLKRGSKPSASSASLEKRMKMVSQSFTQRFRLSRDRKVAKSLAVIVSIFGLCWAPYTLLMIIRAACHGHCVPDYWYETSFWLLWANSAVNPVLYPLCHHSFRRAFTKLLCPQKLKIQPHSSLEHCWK

| Ki [nM] | Compound |
| --- | --- |
| 30 | CN(C)[C@H]1CCN(C(=O)c2ccc3c(c2)CCN(C(=O)C2CCCCC2)C3)C1 [Example 156, (S)-Cyclohexyl-[6-(3-dimethylamino-pyrrolidine-1-carbonyl)-3,4-dihydro-1H-isoquinolin-2-yl]-methanone] |
| 110 | O=C(c1ccc2c(c1)CCN(C(=O)C1CCCCC1)C2)N1CCC(N2CCCCC2)CC1 [Example 157, [6-([1,4′]Bipiperidinyl-1′-carbonyl)-3,4-dihydro-1H-isoquinolin-2-yl]-cyclohexyl-methanone] |
| 4090 | O=C(c1ccc2c(c1)CCN(C(=O)C1CCCCC1)C2)N1CCC(N2CCOCC2)CC1 [Example 158, Cyclohexyl-[6-(4-morpholin-4-yl-piperidine-1-carbonyl)-3,4-dihydro-1H-isoquinolin-2-yl]-methanone] |
| 37 | O=C(c1ccc2c(c1)CCN(C(=O)C1CCCCC1)C2)N1CCN(C2CCCC2)CC1 [Example 159, Cyclohexyl-[6-(4-cyclopentyl-piperazine-1-carbonyl)-3,4-dihydro-1H-isoquinolin-2-yl]-methanone] |
| 84 | O=C(c1ccc2c(c1)CCN(C(=O)C1CCCCC1)C2)N1CCN(C2CCCCC2)CC1 [Example 160, Cyclohexyl-[6-(4-cyclohexyl-piperazine-1-carbonyl)-3,4-dihydro-1H-isoquinolin-2-yl]-methanone] |
| 421 | CN1CCC(N(C)C(=O)c2ccc3c(c2)CCN(C(=O)C2CCCCC2)C3)C1 (stereo not drawn) [Example 161, 2-Cyclohexanecarbonyl-1,2,3,4-tetrahydro-isoquinoline-6-carboxylic acid methyl-(1-methyl-pyrrolidin-3-yl)-amide] |
| 4 | CC(C)N1CCCN(C(=O)c2ccc3c(c2)CCN(C(=O)C2CCCCC2)C3)CC1 [Example 162, Cyclohexyl-[6-(4-isopropyl-[1,4]diazepane-1-carbonyl)-3,4-dihydro-1H-isoquinolin-2-yl]-methanone] |
| 170 | O=C(c1ccc2c(c1)CCN(C(=O)C1CCCCC1)C2)N1CC2CN(C3CCC3)CC2C1 (stereo not drawn) [Example 163, (5-Cyclobutyl-hexahydro-pyrrolo[3,4-c]pyrrol-2-yl)-(2-cyclohexanecarbonyl-1,2,3,4-tetrahydro-isoquinolin-6-yl)-methanone] |
| 1150 | O=C(C1CCCCC1)N1CCc2cc(C(=O)N3C[C@@H]4C[C@H]3CN4C3CCC3)ccc2C1 [Example 164, (1S,4S)-(5-Cyclobutyl-2,5-diaza-bicyclo[2.2.1]hept-2-yl)-(2-cyclohexanecarbonyl-1,2,3,4-tetrahydro-isoquinolin-6-yl)-methanone] |
| 300 | O=C(c1ccc2c(c1)CCN(C(=O)C1CCCCC1)C2)N1CC2CCN(C3CCC3)C2C1 (stereo not drawn) [Example 165, (1-Cyclobutyl-hexahydro-pyrrolo[3,4-b]pyrrol-5-yl)-(2-cyclohexanecarbonyl-1,2,3,4-tetrahydro-isoquinolin-6-yl)-methanone] |
| 45 | O=C(C1CCCCC1)N1CCc2cc(CN3CCCCC3)ccc2C1 [Example 166, Cyclohexyl-(6-piperidin-1-ylmethyl-3,4-dihydro-1H-isoquinolin-2-yl)-methanone] |
| 1390 | O=C(C1CCCCC1)N1CCc2cc(CN3CCOCC3)ccc2C1 [Example 167, Cyclohexyl-(6-morpholin-4-ylmethyl-3,4-dihydro-1H-isoquinolin-2-yl)-methanone] |
| 13 | O=C(C1CCCCC1)N1CCc2cc(CN3CCN4CCCCC4C3)ccc2C1 (stereo not drawn) [Example 168, Cyclohexyl-[6-(octahydro-pyrido[1,2-a]pyrazin-2-ylmethyl)-3,4-dihydro-1H-isoquinolin-2-yl]-methanone] |
| 269 | O=C(C1CCCCC1)N1CCc2cc(CN3CCC[C@H]3CN3CCCC3)ccc2C1 [Example 169, Cyclohexyl-[6-(2-pyrrolidin-1-ylmethyl-pyrrolidin-1-ylmethyl)-3,4-dihydro-1H-isoquinolin-2-yl]-methanone] |
| 860 | O=C(C1CCCCC1)N1CCc2cc(CN3CCN(C4CCC4)CC3)ccc2C1 [Example 170, [6-(4-Cyclobutyl-piperazin-1-ylmethyl)-3,4-dihydro-1H-isoquinolin-2-yl]-cyclohexyl-methanone] |
